Data reported in patent US20190072567A1, “METHOD OF DETECTING LC3B EXPRESSION IN EXOSOMES EXTRACTED FROM LIQUID BIOLOGICAL SAMPLES” (University of Cincinnati, priority 2017, published 2019).
“Also recorded” adds a separate entry of the source.

Legend:
[1] = tested on: HEK293 cells; test: Annexin V cell survival assay by flow cytometry; assay type: cell-based, human
Method: HEK293 cells were plated in 10 cm culture dishes in 10% FBS DMEM media. Media was replaced with dFBS DMEM once 40% confluence was reached and cells were incubated for 24 h. Cells were treated with the following concentrations of agents: Gem 20 μM concentration (Gem^20), CQ 10 μM (CQ^10) and 20 μM (CQ^20) concentrations, and in combinations (wherein Gem was administered at 20 μM but CQ concentration varied) as follows: Gem+CQ^10 and Gem+CQ^20. Cells were treated in fresh dFBS DMEM media for 16 h. Cells and media were collected, centrifuged, and washed and stained with propedium iodide (PI) and annexin V prior to running samples. Cell cycle analysis was performed using fresh cells on a FACS Calibur (Becton Dickinson) after incubation with 25 μg/ml PI. Cell cycle phases were analyzed with the CellQuest-Pro software program (Becton Dickinson).
The effect of autophagy inhibitor CQ was examined via a cell survival assay by flow cytometry using annexin V (FIG. 8).
HEK293 cells were plated in 6 well cell culture plates and treated with control (A), Gem 20 μM (B), CQ 10 μM (C), CQ 20 μM (D), Gem 20 μM+CQ 10 μM (E), and Gem 20 μM+CQ 20 μM (F). Cells treated with CQ at both concentrations had increased expression of phosphatidyl serine compared to control from 10% up to almost 17% (C,E). Cells treated with Gem 20 μM alone had only 8.2% apoptotic cells (B).

[2] = tested on: LC3B; test: Western blot of LC3B in exosomes extracted from MiaPaCa2 cells; assay type: cell-based, human
Method: U251, a human glioblastoma cell line, MiaPaCa2, a human pancreatic carcinoma cell line, and HEK293, a human embryonic kidney cell line. […] Cells were maintained in DMEM culture media supplemented with 10% fetal bovine serum (FBS), antimycotic, and L-glutamine. At 40% confluence, culture dishes were washed twice with PBS and media was replaced with 10% exosome depleted FBS (dFBS). DMEM media (50 ml EXO-FBS™ Exosome Depleted FBS media, System Biosciences) and incubated to settle for 24 h. After 24 h, culture dishes were washed with PBS and new dFBS DMEM media was added and treated with chloroquine diphosphate salt (Sigma Aldrich, UK) and incubated. […] Incubation varied according to plate confluency, CQ concentration, and expected number of exosomes secreted by the cell line. Media was collected and used for exosome extraction directly after incubation period concluded.
Detection of LC3B expression in isolated exosomes was completed using western blotting standard protocols. Briefly, gel electrophoresis was used to separate proteins by size and/or structure. Proteins were then transferred to a membrane (polyvinylidene fluoride or nitrocellulose are suitable for use) and blocked with blocking buffer to prevent non-specific antibody binding. Membranes were incubated with anti-LC3B antibody to target LC3B-I and LC3B-II. LI-COR detection (LI-COR Biotechnology, USA) was employed to visualize target proteins. […] CD9 was used as a loading control and was detected using rabbit monoclonal antibody (Cell Signaling Inc., USA). […]

[3] = tested on: LC3B; test: Western blot of LC3B in exosomes extracted from patient plasma; assay type: in vivo, human; details: patients, Gem/Carb regimen + CQ 100 mg/day
Description: The study included 12 patients who were included within cohorts 1-3 of the approved phase I clinical trial (ClinicalTrials.gov Identifier NCT02071537). […] All subjects were consented before treatment and sample collection. All patients were heavily pretreated with anti-cancer therapeutics, with the exception of one patient who was enrolled to receive therapy with carboplatin/gemcitabine as part of the standard-of-care, in addition to the study CQ.
All 12 patients received Gem/Carb for from one to four cycles at standard doses, wherein the first three patients of cohort one received Gem 1200 mg/m2 and the remaining three patients of cohort one received 1200 mg/m^2 (Gem dose decreased in some patients due to heavy pretreatment, in order to avoid high toxicity profile). Carboplatin was received as area under the curve (AUC) 5 and dose modifications were permitted. […] The first 6 patients received 50 mg CQ daily. When well tolerated, the dose was increased by 50 mg increments to 100 mg/day (3 patients) and 150 mg/day (3 patients). All candidates began taking CQ orally 7 days prior to chemotherapy (day −7) and continued taking CQ daily throughout four cycles of Gem/Carb. […]
Detection of LC3B expression in isolated exosomes was completed using western blotting standard protocols. […] CD9 was used as a loading control and was detected using rabbit monoclonal antibody (Cell Signaling Inc., USA). […]

[4] = tested on: LC3B; test: Western blot of LC3B in U251 cells and in exosomes extracted from cell media; assay type: cell-based, human; details: for LC3B-II band in cells: cells treated with chloroquine, whole cell / total cell extracts (U251); for LC3B-II band in exosomes: exosomes isolated from U251 cells treated with CQ
Description: Three cell lines were used in the studies disclosed herein. U251, a human glioblastoma cell line, MiaPaCa2, a human pancreatic carcinoma cell line, and HEK293, a human embryonic kidney cell line. A variety of cell lines were selected in order to compare results for cells having different baseline autophagic activities. Cells were maintained in DMEM culture media supplemented with 10% fetal bovine serum (FBS), antimycotic, and L-glutamine. At 40% confluence, culture dishes were washed twice with PBS and media was replaced with 10% exosome depleted FBS (dFBS). DMEM media (50 ml EXO-FBS™ Exosome Depleted FBS media, System Biosciences) and incubated to settle for 24 h. After 24 h, culture dishes were washed with PBS and new dFBS DMEM media was added and treated with chloroquine diphosphate salt (Sigma Aldrich, UK) and incubated. Incubation period was 48 h for western blot on HEK293 plates and 72 h for western blot of U251 cells. Incubation varied according to plate confluency, CQ concentration, and expected number of exosomes secreted by the cell line. Media was collected and used for exosome extraction directly after incubation period concluded. Exosome Extraction from Patient Plasma
Exosomes were extracted from freshly collected cell culture media using exosome precipitation reagent (Total Exosome Isolation from cell culture media, Invitrogen by Life Technologies) following manufacturer instructions. Briefly, exosome extraction reagent is added to cell culture media and the solution is incubated overnight at 2-8° C. Precipitated exosomes are recovered by standard centrifugation at 10,000×g for 60 min. Extracted exosomes were suspended in phosphate buffered saline (PBS) and stored at −80° C.
Detection of LC3B expression in isolated exosomes was completed using western blotting standard protocols. Briefly, gel electrophoresis was used to separate proteins by size and/or structure. Proteins were then transferred to a membrane (polyvinylidene fluoride or nitrocellulose are suitable for use) and blocked with blocking buffer to prevent non-specific antibody binding. Membranes were incubated with anti-LC3B antibody to target LC3B-I and LC3B-II. LI-COR detection (LI-COR Biotechnology, USA) was employed to visualize target proteins. LC3B protein detection was achieved by anti-LC3B rabbit monoclonal antibody (Cell Signaling Inc., USA). CD9 was used as a loading control and was detected using rabbit monoclonal antibody (Cell Signaling Inc., USA). All western blots were run on 5-15% gradient gels after estimating and unifying sample protein content by bicinchoninic acid assay (BCA).
Quantification of LC3B-I and LC3B-II by western blot was compared in U251 cells, exosomes extracted from cell media, patient peripheral blood, and HEK293 cells (FIG. 1). U251 and HEK293 cells were treated with CQ to induce exosome secretion. Both cells and exosomes extracted from cellular media were analyzed. A peripheral blood sample was obtained from a patient undergoing Gem/Carb treatment, with a −7 daily pretreatment with CQ. Exosomes were isolated from the patient's plasma sample.

SMILES	early apoptotic cells ([1]; 20 μM Gem, 16 h)	live cells ([1]; 20 μM Gem, 16 h)	main cell population ([1]; Gem 20 μM)	apoptotic cells ([1]; Gem 20 μM alone, 16 h)	LC3B band intensity in exosomes ([2]; Gemcitabine 20 μM alone)	LC3B expression in plasma extracted exosomes [3]	apoptotic cells ([1]; 10 μM CQ, 16 h)	distribution of cell population ([1]; 20 μM CQ compared with 10 μM CQ)	expression of phosphatidyl serine (apoptotic cells) ([1]; CQ at both concentrations (10 μM, 20 μM), control 10%)	LC3B-II band in cells [4]	LC3B-II band in cells ([4]; listed as chloroquine)	LC3B-I bands in exosomes ([4]; exosomes from cells treated with chloroquine)	LC3B-II band in exosomes [4]	LC3B-II band in exosomes ([4]; listed as chloroquine)	LC3B-II expression in exosomes ([2]; CQ 50 μM)
Nc1ccn([C@@H]2O[C@H](CO)[C@@H](O)C2(F)F)c(=O)n1 [Gem, gemcitabine]	56.3%	29.3%	early apoptotic phase	8.2%	significantly less intense bands for both forms of LC3B; also recorded: comparatively less intense band										
CCN(CC)CCCC(C)Nc1ccnc2cc(Cl)ccc12 (stereo not drawn) [CQ, chloroquine]						first detected at 6h, with peak detection on day 15	17%	decreased both live and necrotic cells in favor of early apoptotic and apoptotic cells	~17%	prominent in both CQ-treated and CQ-untreated samples	increase in LC3B-II band thickness	lacks LC3B-I bands	detected	clear LC3B-II band	clear expression of LC3B-II
